Laboratory results reported in PMC10223019, “Preclinical Evaluation of a PSMA-Targeting Homodimer with an Optimized Linker for Imaging of Prostate Cancer” (Molecules, 2023).
Several values for one entry are separate records, joined by “and”; a condition that tells them apart may be missing. Equal entries are not always repeated.

Legend:
[1] = biological target: T1, Recombinant human PSMA (rhPSMA) (Homo sapiens, UniProt Q04609); assay: NAALADase assay (competitive inhibition, Amplex Red glutamate readout); type: biochemical; settings: for IC50: rhPSMA, substrate Ac-Asp-Glu, 1 h 37 °C
T1 construct: purchased R&D systems, Abingdon, UK
Description: Recombinant human PSMA (rhPSMA; R&D systems, Abingdon, UK) was diluted in assay buffer (50 mM HEPES, 0.1 M NaCl, pH 7.5) to 0.4 μg/mL. The substrate Ac–Asp–Glu (40 μM) was mixed with the synthesized derivatives and with a reference (PSMA-617) at concentrations ranging from 10^−6 to 10^−13 M in a final volume of 12.5 μL assay buffer. The mixtures were combined with 12.5 μL of the rhPSMA solution and incubated for 1 h at 37 °C in 384-well black polystyrene microplates (ThermoFisher, Bleiswijk, The Netherlands). The amount of glutamate released was measured by incubating with 25 μL of a working solution of the Amplex Red glutamic acid kit (ThermoFisher, Bleiswijk, The Netherlands) at 37 °C for 30 min. Fluorescence was measured with a HIDEX Sense Optical System (Goedereede, The Netherlands) with excitation at 535 nm and emission at 590 nm. Data were normalized and analyzed using a one-site total binding regression with GraphPad Prism v9.0 (GraphPad Software, San Diego, CA, USA).

[2] = Stability in mouse serum, radio-HPLC; type: in vitro ADME; settings: 24 h post-incubation, 37 °C, indium-111 labeled, intact fraction
Description: [^111In]In-22 or [^111In]In-30 (~35 MBq, 70 µL) was mixed with 330 μL of mouse serum and incubated at 37 °C for up to 24 h. After 1, 4, and 24 h incubation, 50 μL of the mouse serum solution was added to a separate vial containing 50 µL of acetonitrile. The sample was centrifuged at 5000× g for 20 min. The supernatant was analyzed by radio-HPLC.

[3] = LogD7.4 by shake-flask method (PBS/n-octanol); type: physicochemical; settings: PBS/n-octanol (1:1 v/v); LogD7.4, PBS pH 7.4/n-octanol, indium-111 labeled compound; read-out: LogD
Description: The distribution coefficients (LogD7.4 values) were determined by a shake-flask method, in which 2 μL (~0.5 MBq) of the labeling solution ([^111In]In-22 or [^111In]In-30) were added to an Eppendorf tube containing 1 mL of PBS (0.01 M, pH 7.4)/n-octanol (v/v, 1:1). After vigorous vortexing, the solution was centrifuged at 2500× g for 15 min for phase separation. Samples (3 × 10 μL) of the two phases were taken out and measured in a gamma counter. LogD7.4 values were calculated by using the following equation: LogD7.4 = log [(counts in octanol phase)/(counts in aqueous phase)] and the experiment was performed in triplicate.

[4] = Stability in phosphate-buffered saline (PBS), radio-HPLC; type: physicochemical; settings: 24 h post-incubation, 37 °C, indium-111 labeled, intact fraction
Description: [^111In]In-22 or [^111In]In-30 (~10 MBq, 20 µL) was mixed with 80 μL of PBS (0.01 M, pH 7.4) and incubated at 37 °C for up to 24 h. A sample of the PBS solution was loaded directly onto the radio-HPLC at 1, 4, and 24 h post-incubation.

[5] = system: BALB/c nude mice bearing LS174T PSMA-positive tumor xenografts; assay: Ex vivo biodistribution studies; type: in vivo; settings: 24 h p.i.
Description: Animal experiments were performed in 8–10 weeks old male BALB/c nude mice (Janvier Labs, Le Genest-Saint-Isle, France). Animals were housed in individually ventilated cages (Blue line IVC, 4 mice per cage) under nonsterile standard conditions with cage enrichment present and free access to chlorophyll-free animal chow (Sniff GmbH, Soest, Germany) and water and acclimated for 1 week before experiments. Mice were subcutaneously inoculated with 4.0 × 10^6 LS174T cells in the right flank, diluted in 100 μL of cell suspension. Seven days after tumor cell inoculation, when xenografts were approximately 0.2–0.3 cm^3, the tracers were injected intravenously via the tail vein. All experiments were approved by the institutional Animal Welfare Committee and were conducted in accordance with the guidelines of the Revised Dutch Act on Animal Experimentation (WOD).
Mice were intravenously injected with ~1 nmol of either [^111In]In-PSMA-617, [^111In]In-22 or [^111In]In-30 with molar activity of 5 MBq/nmol for ex vivo biodistribution studies. Mice (n = 4/timepoint) were euthanized by cervical dislocation at 1, 4, and 24 h p.i. A block group was included, and mice were euthanized at 4 h p.i. Organs were collected in tubes and counted in the gamma counter, where the calibration factor was determined by measuring different known activities of indium-111.

[6] = system: PSMA expressing LS174T cells; assay: Internalization and cell uptake assay; type: cell-based, human; settings: 2 h 37 °C
Description: LS174T human colon carcinoma cells transfected with human PSMA were obtained from Dr. Sandra Heskamp (Radboud UMC, Nijmegen). Cells were cultured in RPMI-1640 media supplemented with 2 mM glutamine, 10% fetal bovine serum (FBS) and 0.3 mg/mL G418 (Geneticin, Sigma Aldrich, St. Louis, MO, USA).
Cells were seeded (1.2 × 10^6 cells/well) and cultured to confluency for 24 h prior to experiments. We prepared 10^−9 M solutions of [^111In]In-PSMA-617, [^111In]In-22, and [^111In]In-30 in internalization media (RPMI, 20 mM HEPES, 1% BSA, pH 7.4). The media were removed from each well, and they were rinsed twice with PBS at rt. 2 mL of the radioactive compound was then added to each well and incubated at 37 °C for 2 h. For the internalization assay, the media containing radioactive compound were removed, and each well was washed twice with cold PBS. A total of 1 mL of Glycine buffer (50 mM glycine, 100 mM NaCl, pH 2.8) was added immediately and incubated for 10 min at rt. The glycine wash was then collected into counting tubes (membrane-bound fraction). An extra wash was performed and collected in the same tubes. A total of 1 mL of NaOH (1 M) was then added to each tube and left for 15 min at rt. The lysate (internalized fraction) was then collected in separate counting tubes, together with one extra NaOH wash. Data were normalized to 1,000,000 cells and percentage added dose.

T1 sequence (Q04609 whole entry): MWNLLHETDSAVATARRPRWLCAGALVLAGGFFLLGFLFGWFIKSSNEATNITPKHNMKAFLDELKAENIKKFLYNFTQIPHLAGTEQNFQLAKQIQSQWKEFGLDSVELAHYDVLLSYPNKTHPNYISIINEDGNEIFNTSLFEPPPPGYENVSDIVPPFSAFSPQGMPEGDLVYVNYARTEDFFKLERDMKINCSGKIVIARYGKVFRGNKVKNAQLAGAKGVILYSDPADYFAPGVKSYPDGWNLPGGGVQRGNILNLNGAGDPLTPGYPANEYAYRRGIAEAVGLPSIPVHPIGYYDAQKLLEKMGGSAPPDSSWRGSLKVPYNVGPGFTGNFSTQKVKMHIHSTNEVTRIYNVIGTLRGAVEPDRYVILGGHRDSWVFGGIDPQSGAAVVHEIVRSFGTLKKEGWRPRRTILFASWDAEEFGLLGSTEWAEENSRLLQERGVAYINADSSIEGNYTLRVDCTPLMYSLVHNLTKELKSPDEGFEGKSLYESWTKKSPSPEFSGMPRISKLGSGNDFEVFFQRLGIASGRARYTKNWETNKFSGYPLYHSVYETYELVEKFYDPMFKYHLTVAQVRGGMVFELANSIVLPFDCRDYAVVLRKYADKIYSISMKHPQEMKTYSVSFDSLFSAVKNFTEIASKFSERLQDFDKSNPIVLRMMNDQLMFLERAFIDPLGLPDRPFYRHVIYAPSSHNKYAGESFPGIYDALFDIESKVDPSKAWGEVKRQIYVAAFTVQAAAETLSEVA

Structure (SMILES) | IC50 [1] | other results
NCCCCCC(=O)NCCCCC(NC(=O)NC(CCC(=O)O)C(=O)O)C(=O)O (centres unmarked) [Compound 1] | 9.86 ± 1.7 nM | –
NCCC(=O)NCCCCCC(=O)NCCCC[C@H](NC(=O)N[C@@H](CCC(=O)O)C(=O)O)C(=O)O [Compound 2, EuK(Ahx-Ala)] | 23.1 ± 3.1 nM | –
NCCC(=O)NCCC(=O)NCCCCCC(=O)NCCCC[C@H](NC(=O)N[C@@H](CCC(=O)O)C(=O)O)C(=O)O [Compound 3] | 20.1 ± 2.7 nM | –
N[C@@H](Cc1ccccc1)C(=O)NCCC(=O)NCCCCCC(=O)NCCCC[C@H](NC(=O)N[C@@H](CCC(=O)O)C(=O)O)C(=O)O [Compound 4] | 2.86 ± 0.3 nM | –
CC(C)C[C@H](N)[C@@H](O)CC(=O)NCCC(=O)NCCCCCC(=O)NCCCC[C@H](NC(=O)N[C@@H](CCC(=O)O)C(=O)O)C(=O)O [Compound 5] | 10.1 ± 3.2 nM | –
N[C@@H](Cc1ccccc1)C(=O)NCCCCCC(=O)NCCCC[C@H](NC(=O)N[C@@H](CCC(=O)O)C(=O)O)C(=O)O [Compound 6] | 3.17 ± 0.5 nM | –
N[C@@H](Cc1ccccc1)C(=O)N[C@@H](Cc1ccccc1)C(=O)NCCCCCC(=O)NCCCC[C@H](NC(=O)N[C@@H](CCC(=O)O)C(=O)O)C(=O)O [Compound 7] | 1.72 ± 0.4 nM | –
NCCC(=O)N[C@@H](Cc1ccccc1)C(=O)NCCCCCC(=O)NCCCC[C@H](NC(=O)N[C@@H](CCC(=O)O)C(=O)O)C(=O)O [Compound 8] | 4.53 ± 0.4 nM | –
CC(C)C[C@H](N)[C@@H](O)CC(=O)N[C@@H](Cc1ccccc1)C(=O)NCCCCCC(=O)NCCCC[C@H](NC(=O)N[C@@H](CCC(=O)O)C(=O)O)C(=O)O [Compound 9] | 7 ± 0.3 nM | –
CC(C)C[C@H](N)[C@@H](O)CC(=O)NCCCCCC(=O)NCCCC[C@H](NC(=O)N[C@@H](CCC(=O)O)C(=O)O)C(=O)O [Compound 10] | 6.83 ± 0.5 nM | –
CC(C)C[C@H](NC(=O)C[C@H](O)[C@@H](N)CC(C)C)[C@@H](O)CC(=O)NCCCCCC(=O)NCCCC[C@H](NC(=O)N[C@@H](CCC(=O)O)C(=O)O)C(=O)O [Compound 11] | 6.5 ± 0.4 nM | –
CC(C)C[C@H](NC(=O)CCN)[C@@H](O)CC(=O)NCCCCCC(=O)NCCCC[C@H](NC(=O)N[C@@H](CCC(=O)O)C(=O)O)C(=O)O [Compound 13] | 6.15 ± 0.6 nM | –
CC(C)C[C@H](NC(=O)[C@H](Cc1ccccc1)NC(=O)CN1CCN(CC(=O)O)CCN(CC(=O)O)CCN(CC(=O)O)CC1)[C@@H](O)CC(=O)NCCCCCC(=O)NCCCC[C@H](NC(=O)N[C@@H](CCC(=O)O)C(=O)O)C(=O)O [Compound 14] | 1.73 ± 0.7 nM | –
CC(C)C[C@H](NC(=O)[C@H](Cc1ccccc1)NC(=O)[C@@H](N)CN)[C@@H](O)CC(=O)NCCCCCC(=O)NCCCC[C@H](NC(=O)N[C@@H](CCC(=O)O)C(=O)O)C(=O)O [Compound 15] | 2.1 ± 0.4 nM | –
CC(C)C[C@H](NC(=O)[C@H](Cc1ccccc1)NC(=O)[C@@H](N)CC(=O)O)[C@@H](O)CC(=O)NCCCCCC(=O)NCCCC[C@H](NC(=O)N[C@@H](CCC(=O)O)C(=O)O)C(=O)O [Compound 16, EuK(Ahx-Sta-Phe-Asp)] | 1.03 ± 0.5 nM | –
CC(C)C[C@H](NC(=O)[C@H](Cc1ccccc1)NC(=O)[C@@H](N)Cc1ccc(O)cc1)[C@@H](O)CC(=O)NCCCCCC(=O)NCCCC[C@H](NC(=O)N[C@@H](CCC(=O)O)C(=O)O)C(=O)O [Compound 17] | 2.62 ± 0.4 nM | –
CC(C)C[C@H](NC(=O)[C@H](Cc1ccccc1)NC(=O)[C@@H](N)Cc1ccccc1)[C@@H](O)CC(=O)NCCCCCC(=O)NCCCC[C@H](NC(=O)N[C@@H](CCC(=O)O)C(=O)O)C(=O)O [Compound 18] | 3.33 ± 0.4 nM | –
CC(C)C[C@H](NC(=O)[C@H](Cc1ccccc1)NC(=O)C[C@H](O)[C@@H](N)CC(C)C)[C@@H](O)CC(=O)NCCCCCC(=O)NCCCC[C@H](NC(=O)N[C@@H](CCC(=O)O)C(=O)O)C(=O)O [Compound 19] | 1.22 ± 0.3 nM | –
CC(C)C[C@H](NC(=O)[C@H](Cc1ccccc1)NC(=O)[C@H](CC(=O)O)NC(=O)CCC(C(=O)O)N1CCN(CC(=O)O)CCN(CC(=O)O)CCN(CC(=O)O)CC1)[C@@H](O)CC(=O)NCCCCCC(=O)NCCCC[C@H](NC(=O)N[C@@H](CCC(=O)O)C(=O)O)C(=O)O (stereo partly drawn) [Compound 22, EuK(Ahx-Sta-L-Phe-Asp-DOTA-GA)] | 1.66 nM and 1 to 1.6 nM | Stability in Mouse Serum (%) [2]: > 90%; logD [3]: -3.26 ± 0.05; Stability in PBS (%) [4]: > 90%; IC50 of 22 (L-Phe) relative to 23 (D-Phe) ([1]; comparison in words): two-fold better
CC(C)C[C@H](NC(=O)[C@@H](Cc1ccccc1)NC(=O)[C@H](CC(=O)O)NC(=O)CCC(C(=O)O)N1CCN(CC(=O)O)CCN(CC(=O)O)CCN(CC(=O)O)CC1)[C@@H](O)CC(=O)NCCCCCC(=O)NCCCC[C@H](NC(=O)N[C@@H](CCC(=O)O)C(=O)O)C(=O)O (stereo partly drawn) [Compound 23, EuK(Ahx-Sta-D-Phe-Asp-DOTA-GA)] | – | logD [3]: -3.21 ± 0.07
O=C(O)CC[C@H](NC(=O)N[C@@H](CCCCNC(=O)[C@H](Cc1ccc2ccccc2c1)NC(=O)[C@H]1CC[C@H](CNC(=O)CN2CCN(CC(=O)O)CCN(CC(=O)O)CCN(CC(=O)O)CC2)CC1)C(=O)O)C(=O)O [PSMA-617, reference compound] | 0.9 ± 0.3 nM | Tumor-to-muscle (T/M) ratio [5]: 26; Internalized fraction as share of total uptake (internalization) [6]: 34.1%
CC(C)C[C@H](NC(=O)[C@@H](Cc1ccccc1)NC(=O)[C@H](CC(=O)O)NC(=O)CCC(C(=O)O)N1CCN(CC(=O)[O-])CCN(CC(=O)[O-])CCN(CC(=O)[O-])CC1)[C@@H](O)CC(=O)NCCCCCC(=O)NCCCC[C@H](NC(=O)N[C@@H](CCC(=O)O)C(=O)O)C(=O)O.[111In+3] (some centres unmarked) [[^111In]In-23] | – | Stability in Mouse Serum (%) [2]: > 90%; Stability in PBS (%) [4]: > 90%
